According to the METLIN SMRT retention time set (Domingo-Almenara et al. 2019):

Assay: gradient 5% acetonitrile 3 min, to 50% in 2 min, to 85% in 15 min, held 3 min, 100 µL/min
Details: column: Zorbax Extend-C18 2.1 x 50 mm; eluents: water / acetonitrile, 0.1% formic acid
Outline: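 Retention times of pure standards were taken from adduct peaks that were selected by computer and manually inspected. Over 3 months, mixtures of ~100 molecules were run by HPLC–quadrupole time-of-flight mass spectrometry in positive and negative ionization mode. The Zorbax Extend-C18 column (2.1 × 50 mm, 1.8 μm) ran at 100 μL/min in water and acetonitrile, each containing 0.1% formic acid, with 40 μL dead volume and 900 μL dwell volume.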

SMILES: CCc1nc2c(NC(=O)c3ccc(C)c(C)c3)cccn2n1
- RP-LC retention time: 922 s

SMILES: Cc1ccc(N2C(=O)CN(S(C)(=O)=O)CC2(C)C(=O)NC2CCCCC2)cc1Cl (stereo unspecified)
- RP-LC retention time: 892 s

SMILES: O=C(C1CCCN(c2nnc3ccc(C(F)(F)F)cn23)C1)N1CCCCC1 (stereo unspecified)
- RP-LC retention time: 670 s

SMILES: O=C(Nc1cnn(-c2ncc(N3CCSCC3)cn2)c1)C1CCCO1 (stereo unspecified)
- RP-LC retention time: 665 s

SMILES: Cc1cc2n(n1)CCC(=O)N2CCCC(=O)NCCc1ccccc1
- RP-LC retention time: 666 s

SMILES: COC(=O)c1c(C)[nH]c(C(=O)N2CCCC(C(=O)NCCCN3CCCC3)C2)c1C (stereo unspecified)
- RP-LC retention time: 584 s

SMILES: Cc1cccc(NC(=O)c2ccc(N3CCCC3)nn2)n1
- RP-LC retention time: 612 s

SMILES: O=S(=O)(CCOc1ccc(F)cc1)Nc1ncccn1
- RP-LC retention time: 670 s

SMILES: O=C(NC1CCN(c2nnc3ccc(Cl)cn23)CC1)c1ccc(C(F)(F)F)s1
- RP-LC retention time: 837 s

SMILES: CCn1nc(C)n2cc(S(=O)(=O)NCc3ccc(F)cc3F)cc2c1=O
- RP-LC retention time: 856 s

SMILES: Cc1cc(C(=O)Nc2ccc3scnc3c2)no1
- RP-LC retention time: 645 s

SMILES: CCCn1cc(S(=O)(=O)NCc2cccs2)c2cccnc21
- RP-LC retention time: 833 s

SMILES: COc1ccc(OC)c(NC(=O)N2CCc3c(c(C(=O)N4CCOCC4)nn3C)C2)c1
- RP-LC retention time: 648 s

SMILES: FC(F)(F)c1ccc(C2CNCCO2)cc1 (stereo unspecified)
- RP-LC retention time: 570 s

SMILES: Cc1ccc([N+](=O)[O-])cc1NC(=O)c1cccc([N+](=O)[O-])c1O
- RP-LC retention time: 913 s

SMILES: CSc1ncn(-c2nc(N(C)C)nc(N3CCCCCC3)n2)n1
- RP-LC retention time: 1200 s

SMILES: [O-][n+]1nc2ccccc2c2ccccc21
- RP-LC retention time: 812 s

SMILES: COc1ccccc1Cc1noc(C2CN(S(=O)(=O)c3c(C)noc3C)C2)n1
- RP-LC retention time: 897 s

SMILES: O=C(Nc1cccc(Br)c1)c1cccn1Cc1noc(C2CC2)n1
- RP-LC retention time: 1040 s

SMILES: CCc1cc(=O)n(CC(=O)Nc2ccccc2F)c(-c2cccc(F)c2)n1
- RP-LC retention time: 1170 s

SMILES: O=c1n(CCOc2ccccc2)nc2c(S(=O)(=O)N3CCN(c4ccc(F)cc4)CC3)cccn12
- RP-LC retention time: 1000 s

SMILES: S=c1cc(N2CCSCC2)[nH]cn1
- RP-LC retention time: 602 s

SMILES: CNC(=O)[C@@H]1CN(S(=O)(=O)c2cnc[nH]2)C[C@H]1c1nc(C)no1
- RP-LC retention time: 568 s

SMILES: CC1CC(=O)c2cn3ncnc3nc2C1 (stereo unspecified)
- RP-LC retention time: 607 s

SMILES: Cc1ccc(-c2cn3c(CC(=O)NCCCc4ccccc4)csc3n2)cc1C
- RP-LC retention time: 887 s

SMILES: Cc1cccc(-n2nc(C)c3sc(N(C)CC(=O)N4CCN(c5ccccn5)CC4)nc32)c1
- RP-LC retention time: 700 s

SMILES: COc1cccc(-c2cn3ccn(-c4ccc5c(c4)CCC5)c(=O)c3n2)c1
- RP-LC retention time: 914 s

SMILES: CCOc1ccc(-c2cc3c(=O)n(Cc4nc(-c5ccc6c(c5)OCO6)no4)ncn3n2)cc1
- RP-LC retention time: 1100 s

SMILES: Cc1cc(Cl)ccc1NC(=O)c1cccn1-c1cccnc1
- RP-LC retention time: 798 s

SMILES: COCCn1cc2c3c(cccc31)CN(C(=O)NCCC(C)C)CC2
- RP-LC retention time: 912 s

SMILES: CC(NC(=O)c1nnc(-c2ccc(S(=O)(=O)N(C)C)cc2)o1)c1ccccn1 (stereo unspecified)
- RP-LC retention time: 683 s

SMILES: CC1=C(c2ccccc2)S(=O)(=O)N=C1N1CCCN(S(=O)(=O)c2cccnc2)CC1
- RP-LC retention time: 769 s

SMILES: COc1ccccc1NC(=O)N1CCN(c2cc(C)nc(N3CCCC3)n2)CC1
- RP-LC retention time: 673 s

SMILES: CCC(C)NC(=O)c1ccc(CN2CCN(Cc3ccccc3)C(=O)C2=O)cc1 (stereo unspecified)
- RP-LC retention time: 721 s

SMILES: O=C(c1cccs1)N1CCCC(c2ccnc(Nc3cccc(F)c3)n2)C1 (stereo unspecified)
- RP-LC retention time: 957 s

SMILES: CCCC(NC(=O)CCc1ccccc1OC)C(=O)Nc1nc2ccccc2[nH]1 (stereo unspecified)
- RP-LC retention time: 750 s

SMILES: O=C(Nc1cccc(C(F)(F)F)c1)N1CCC(n2cnnc2C2CC2)C1 (stereo unspecified)
- RP-LC retention time: 701 s

SMILES: CCc1nn(C(C)C(=O)NCCc2c[nH]c3ccccc23)c(=O)c2cc3occc3n12 (stereo unspecified)
- RP-LC retention time: 851 s

SMILES: O=C(NCc1ccc(F)cc1F)c1c(O)c2cccnc2n(-c2ccccc2)c1=O
- RP-LC retention time: 1200 s

SMILES: Cc1cc(C)cc(NC(=O)NCCc2c(C)nn(C)c2C)c1
- RP-LC retention time: 664 s

SMILES: Cc1cccc(NC(=O)Cn2nc(N3CCCC3)c3ccccc3c2=O)c1C
- RP-LC retention time: 927 s

SMILES: CC(C)CN1CCn2cc(S(=O)(=O)NCc3cc(F)cc(F)c3)cc2C1=O
- RP-LC retention time: 808 s

SMILES: CCSc1ccc(Cc2nnc(NC(=O)c3cccs3)o2)cc1
- RP-LC retention time: 807 s

SMILES: Cc1noc([C@@H]2CC(F)(F)CN2C(=O)c2cocn2)n1
- RP-LC retention time: 667 s

SMILES: CCN1C(=O)c2cccnc2Sc2cc(NC(=O)Cc3ccccc3F)ccc21
- RP-LC retention time: 826 s

SMILES: O=C(NCC(O)c1cccc2ccccc12)c1ccccc1C(F)(F)F (stereo unspecified)
- RP-LC retention time: 814 s

SMILES: Cc1nnc(-c2cc(C)n(CC(=O)Nc3ccc(Cl)cc3)c2C)o1
- RP-LC retention time: 820 s

SMILES: Cc1ccccc1Nc1c(-c2ccc(N(C)C)cc2)nc2cnccn12
- RP-LC retention time: 833 s

SMILES: CCc1noc(NC(C)=O)c1-c1ccc(C)c(S(=O)(=O)NC(C)CC)c1 (stereo unspecified)
- RP-LC retention time: 787 s

SMILES: COC(=O)c1cc(C)nc2c1c(=O)n(Cc1ccccc1F)c(=O)n2Cc1ccco1
- RP-LC retention time: 1070 s

SMILES: COc1ccc2[nH]cc(CCNC(=O)CCC(=O)N3Cc4cccn4-c4ccccc43)c2c1
- RP-LC retention time: 850 s

SMILES: CCOC(=O)c1noc2nc(C)nc(N3CCc4ccccc4C3)c12
- RP-LC retention time: 1120 s

SMILES: O=C(Cn1ccc2ccc(N3CCOCC3)nc21)N1CCN(c2ccccc2Cl)CC1
- RP-LC retention time: 1060 s

SMILES: CCc1nn(C)c(=O)c2cc(S(=O)(=O)N3CCC(Cc4ccccc4)CC3)cn12
- RP-LC retention time: 1050 s

SMILES: Cc1ccc(Cn2c(=O)c(N3CCN(C(=O)NCC4CCCO4)CC3)nc3ccccc32)cc1 (stereo unspecified)
- RP-LC retention time: 908 s

SMILES: COc1ccc(NC(=O)Cn2c(=O)n(-c3ccc(F)cc3)c(=O)c3c2cc(C)n3C)cc1Cl
- RP-LC retention time: 873 s

SMILES: Cn1c(=O)c(N2CCCC(C(=O)NCc3cccc(Br)c3)C2)nc2ccccc21 (stereo unspecified)
- RP-LC retention time: 998 s

SMILES: CCN1CCCC1CN(CC(=O)N1CCNCC1)S(=O)(=O)c1cc(Cl)ccc1OC (stereo unspecified)
- RP-LC retention time: 573 s

SMILES: CCOc1ccc(S(=O)(=O)N2CCC(C(=O)NCc3ccccn3)CC2)cc1C
- RP-LC retention time: 680 s

SMILES: Cc1nc2cc(-c3noc(-c4ccncc4)n3)ccc2n(C2CCCC2)c1=O
- RP-LC retention time: 1130 s

SMILES: CCOc1ccc(CC(=O)NC2CCN(c3cc(-c4cccs4)[nH]n3)C2)cc1OCC (stereo unspecified)
- RP-LC retention time: 727 s

SMILES: CCOc1ccc(-c2cc3c(=O)n(Cc4nc(-c5ccc(F)c(Cl)c5)no4)ncn3n2)cc1
- RP-LC retention time: 982 s

SMILES: Cc1ccc(Sc2nccnc2N2CCCC(C(=O)NC3CCCCC3)C2)cc1 (stereo unspecified)
- RP-LC retention time: 1150 s

SMILES: O=C(CC1CCN(S(=O)(=O)c2ccc(Cl)s2)CC1)N1CCN(c2ccccn2)CC1
- RP-LC retention time: 672 s

SMILES: CCn1c(=O)c(C)nc2cc(-c3noc(C(C)NC(=O)c4ccco4)n3)ccc21 (stereo unspecified)
- RP-LC retention time: 866 s

SMILES: CCNC(=O)c1cc(-c2ccc(F)cc2)n(C)c1C
- RP-LC retention time: 820 s

SMILES: CCOC(=O)C1CCN(CC(O)COC2CCCC2)CC1 (stereo unspecified)
- RP-LC retention time: 562 s

SMILES: Cc1ccc(NC(=O)N2CCC(n3c(-c4ccoc4)nc4cccnc43)C2)cc1F (stereo unspecified)
- RP-LC retention time: 774 s

SMILES: CC(C)N1C(=O)C(C)N(C(=O)NCCN(C)C)c2cccnc21 (stereo unspecified)
- RP-LC retention time: 565 s

SMILES: O=C(c1nnn(Cc2ccc(Cl)cc2)c1-n1cccc1)N1CCSCC1
- RP-LC retention time: 981 s

SMILES: CC(=O)N1CCN(c2nc3c(s2)CC(C(=O)N2CCCCC2)CC3)CC1 (stereo unspecified)
- RP-LC retention time: 548 s

SMILES: Cc1ccc(-n2ccc(=O)c(-c3nc(-c4ccccc4C)no3)n2)cc1
- RP-LC retention time: 987 s

SMILES: CNC(=O)[C@@H]1CN(C(=O)c2cc(C3CC3)[nH]n2)C[C@H]1c1n[nH]c(C)n1
- RP-LC retention time: 577 s

SMILES: Cc1ccc(-c2nc(N3CC4(C)CC3CC(C)(C)C4)c3ccccc3n2)cc1 (stereo unspecified)
- RP-LC retention time: 1060 s

SMILES: CCOC(=O)N1CCC(NC(=O)Cn2ccc3ccccc32)CC1
- RP-LC retention time: 731 s

SMILES: Cc1nn(C(C)C(=O)NC(C)C)c(=O)c2nn(-c3ccccc3)c(C)c12 (stereo unspecified)
- RP-LC retention time: 739 s

SMILES: COc1cc(CN2CCC3(CCC3O)CC2)ccc1OC(C)C (stereo unspecified)
- RP-LC retention time: 614 s

SMILES: COCC(C)NC(=O)CN1c2ccc(F)cc2-c2ccccc2S1(=O)=O (stereo unspecified)
- RP-LC retention time: 785 s

SMILES: CNC(=O)c1ccccc1C(=O)NCCc1nc(-c2cnccn2)no1
- RP-LC retention time: 555 s

SMILES: Cc1ccc(NC(=O)Cc2csc3nc(-c4ccc(C)c(C)c4)cn23)cc1C
- RP-LC retention time: 850 s

SMILES: O=C(C1CCN(c2nc3ccc(-c4cccnc4)nc3s2)CC1)N1CCCC1
- RP-LC retention time: 615 s

SMILES: CCOc1ccc(-c2cc3c(=O)n(Cc4nc(-c5ccc(OCC)c(OC)c5)no4)ncn3n2)cc1
- RP-LC retention time: 1150 s

SMILES: CC(N)c1cccc(Cl)c1Cl (stereo unspecified)
- RP-LC retention time: 636 s

SMILES: Cn1nc2n(c1=O)CCC(NS(=O)(=O)c1cccnc1)CC2 (stereo unspecified)
- RP-LC retention time: 579 s

SMILES: O=C(Nc1c(-c2ccccc2)nc2ccccn12)c1ccc2ccccc2c1
- RP-LC retention time: 720 s

SMILES: COc1ccc(CNC(=O)C2CCCN(c3ncnc4c3nc3n4CCCCC3)C2)cc1 (stereo unspecified)
- RP-LC retention time: 732 s

SMILES: CCNC(=O)CN1CCN(Cc2ccccc2F)C1=O
- RP-LC retention time: 658 s

SMILES: Cc1nc2cccnc2n1C1CCN(C(=O)Nc2ccc3c(c2)OCCO3)C1 (stereo unspecified)
- RP-LC retention time: 573 s

SMILES: Cc1ccc2c(=O)c(C(=O)N3CCCC3)cn(CC(=O)Nc3cc(F)ccc3F)c2n1
- RP-LC retention time: 703 s

SMILES: O=C(CCSc1ccccc1)N1CCN(c2ccc3nnc(C4CC4)n3n2)CC1
- RP-LC retention time: 684 s

SMILES: CC(C)CN(CC(C)C)c1nc(-c2ccc([N+](=O)[O-])cc2)nc2ccccc12
- RP-LC retention time: 1250 s
